Measurements as given in ChEMBL document CHEMBL1129745, “Synthesis and antibacterial activity of new tropone-substituted phenyloxazolidinone antibacterial agents 1. Identification of leads and importance of the tropone substitution pattern” (1996).
In brackets after ≈: the same amount, converted by molar mass.

Key:
Assay type in all cases: functional
[1] = tested on: Staphylococcus aureus; experiment: Compound was tested in vitro for antibacterial activity against methicillin-susceptible Staphylococcus aureus UC 9213.
[2] = tested on: Mycobacterium tuberculosis; experiment: Compound was tested in vitro for antibacterial activity against Mycobacterium tuberculosis H37 Rv.
[3] = tested on: Enterococcus faecalis; experiment: Compound was tested in vitro for antibacterial activity against Enterococcus faecalis UC 9217.
[4] = tested on: Staphylococcus aureus; experiment: Compound was tested in vitro for antibacterial activity against methicillin-resistant Staphylococcus aureus UC 6685.
[5] = tested on: Mus musculus; experiment: Amount of drug required (mg/kg body weight/dose) to cure 50% of infected mice subjected to a lethal systemic infection with Staphylococcus aureus UC 9213
[6] = tested on: Staphylococcus epidermidis; experiment: Compound was tested in vitro for antibacterial activity against methicillin-resistant Staphylococcus epidermidis UC 12084
[7] = tested on: Streptococcus pneumoniae; experiment: Compound was tested in vitro for antibacterial activity against Streptococcus pneumoniae UC 9912.
[8] = tested on: Escherichia coli; experiment: Compound was tested in vitro for antibacterial activity against Escherichia coli extracts, using cell free prokaryotic transcription coupled translation (T/T) assay.; design: concentration or dose not given beside the values; settings: dose or concentration not given here

Row | Structure (SMILES) | MIC [1] [µg/mL] | MIC [2] [µg/mL] | MIC [3] [µg/mL] | MIC [4] [µg/mL] | ED50 [5] [mg/kg] | MIC [6] [µg/mL] | MIC [7] [µg/mL] | inhibition [8] [%]
1 | COc1cc(-c2ccc(N3CC(CNC(C)=O)OC3=O)cc2)cccc1=O (stereo not drawn) | 64 (≈ 174 µM) | ≤ 16 | 32 (≈ 86.9 µM) | 16 (≈ 43.4 µM) | > 20 | 8 (≈ 21.7 µM) | 4 (≈ 10.9 µM) | 39
2 | C=CCNc1ccc(-c2ccc(N3CC(CNC(C)=O)OC3=O)cc2)ccc1=O (stereo not drawn) | 2 (≈ 5.08 µM) |  | 1 (≈ 2.54 µM) | 1 (≈ 2.54 µM) | 12.7 | 0.5 (≈ 1.27 µM) | 0.5 (≈ 1.27 µM) | 81
3 | C/N=c1\ccc(-c2ccc(N3CC(CNC(C)=O)OC3=O)cc2)ccc1O (stereo not drawn) | 2 (≈ 5.44 µM) |  | 1 (≈ 2.72 µM) | 1 (≈ 2.72 µM) | 4.6 | 0.25 (≈ 0.68 µM) | 0.25 (≈ 0.68 µM) | 
4 | COc1ccc(-c2ccc(N3CC(CNC(C)=O)OC3=O)cc2)ccc1=O (stereo not drawn) | 2 (≈ 5.43 µM) | ≤ 1 | 1 (≈ 2.71 µM) | 1 (≈ 2.71 µM) |  | 0.5 (≈ 1.36 µM) | 0.25 (≈ 0.679 µM) | 89
5 | CC(=O)NC[C@H]1CN(c2ccc(C(C)=O)cc2)C(=O)O1 (racemic) [DUP-721] | 8 (≈ 29 µM) | ≤ 16 | 8 (≈ 29 µM) | 4 (≈ 14.5 µM) | 9.4 | 2 (≈ 7.24 µM) | 2 (≈ 7.24 µM) | 45
6 | COc1cccc(-c2ccc(N3CC(CNC(C)=O)OC3=O)cc2)cc1=O (stereo not drawn) | 4 (≈ 10.9 µM) | ≤ 1 | 2 (≈ 5.43 µM) | 2 (≈ 5.43 µM) |  | 0.5 (≈ 1.36 µM) | 0.5 (≈ 1.36 µM) | 90
7 | CC(=O)NCC1CN(c2ccc(-c3ccc(N4CCOCC4)c(=O)cc3)cc2)C(=O)O1 (stereo not drawn) | 2 (≈ 4.72 µM) | ≤ 1 | 1 (≈ 2.36 µM) | 2 (≈ 4.72 µM) |  | 0.5 (≈ 1.18 µM) | 0.5 (≈ 1.18 µM) | 81
8 | C=CCNc1cccc(-c2ccc(N3CC(CNC(C)=O)OC3=O)cc2)cc1=O (stereo not drawn) | 2 (≈ 5.08 µM) |  | 1 (≈ 2.54 µM) | 1 (≈ 2.54 µM) | 12.5 | 0.5 (≈ 1.27 µM) | 0.5 (≈ 1.27 µM) | 80
9 | C#CCNc1cccc(-c2ccc(N3CC(CNC(C)=O)OC3=O)cc2)cc1=O (stereo not drawn) | 2 (≈ 5.11 µM) | ≤ 1 | 1 (≈ 2.55 µM) | 1 (≈ 2.55 µM) | 3.4 | 1 (≈ 2.55 µM) | 0.5 (≈ 1.28 µM) | 76
10 | C=CCOc1ccc(-c2ccc(N3CC(CNC(C)=O)OC3=O)cc2)ccc1=O (stereo not drawn) | 4 (≈ 10.1 µM) |  | 2 (≈ 5.07 µM) | 1 (≈ 2.54 µM) | 7.9 | 0.5 (≈ 1.27 µM) | 0.25 (≈ 0.634 µM) | 74
11 | CN[C@H](CC(C)C)C(=O)N[C@H]1C(=O)N[C@@H](CC(N)=O)C(=O)N[C@H]2C(=O)N[C@H]3C(=O)N[C@H](C(=O)N[C@H](C(=O)O)c4cc(O)cc(O)c4-c4cc3ccc4O)[C@H](O)c3ccc(c(Cl)c3)Oc3cc2cc(c3O[C@@H]2O[C@H](CO)[C@@H](O)[C@H](O)[C@H]2O[C@H]2C[C@](C)(N)[C@H](O)[C@H](C)O2)Oc2ccc(cc2Cl)[C@H]1O [VANCOMYCIN] |  |  |  |  |  |  | 0.5 (≈ 0.345 µM) | 
